How the values were obtained:
Assay in all cases: radiometric kinase assay (Eurofins KinaseProfiler)
Assay type in all cases: biochemical
Conditions in all cases: 2 µM LXY18; Mg/ATP; 120 min; room temperature; no pre-incubation
ABL [1] = biological target: T1, ABL (Homo sapiens, UniProt P00519)
T1 construct: gene ABL1; Eurofins KinaseProfiler panel kinase

MKK3 = biological target: T2, MKK3 (Homo sapiens, UniProt P46734)
T2 construct: gene MAP2K3; Eurofins KinaseProfiler panel kinase
T2 sequence (P46734 1-347): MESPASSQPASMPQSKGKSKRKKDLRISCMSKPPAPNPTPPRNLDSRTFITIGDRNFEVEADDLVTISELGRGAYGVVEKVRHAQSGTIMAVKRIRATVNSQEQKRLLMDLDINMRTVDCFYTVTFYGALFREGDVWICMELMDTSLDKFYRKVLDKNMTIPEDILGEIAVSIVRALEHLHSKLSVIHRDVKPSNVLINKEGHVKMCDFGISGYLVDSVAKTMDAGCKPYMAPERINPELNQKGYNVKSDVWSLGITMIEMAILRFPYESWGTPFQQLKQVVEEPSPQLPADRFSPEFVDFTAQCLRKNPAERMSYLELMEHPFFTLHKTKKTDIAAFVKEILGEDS

ABL [2] = biological target: T3, ABL (Homo sapiens, UniProt P00519, H396P)
T3 construct: gene ABL1; Eurofins KinaseProfiler panel kinase

## COc1cc(NC(C)=O)cc(Oc2ccnc3ccc(Br)cc23)c1 [LXY18, N-(3-((6-bromoquinolin-4-yl)oxy)-5-methoxyphenyl)acetamide]
ABL [1]
  % inhibition at 2 μM: The only positive hits in the kinome assay were MKK3, ABL, and an activating mutant
MKK3
  % inhibition at 2 μM: The only positive hits in the kinome assay were MKK3, ABL, and an activating mutant
ABL [2]
  % inhibition at 2 μM: MKK3, ABL, and an activating mutant ABL (H396P)
